Structures can show the parent of a compound that is named as a salt.
Each compound was assayed on LNCaP cells (assay: LNCaP cell viability assay (MTS)). Settings: Homo sapiens, LNCaP cell line, 48 hours.
Type: cell-based
How it was run: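 GI50 derived by nonlinear four-parameter curve fitting (bottom fixed at zero) of MTS viability data. Prostate LNCaP cells seeded at 5000/well were given compound doses from 1 to 80 µM one day after plating and assayed after 48 h of exposure.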
For `CN(C)CC(NS(=O)(=O)c1ccc(OC(F)(F)F)cc1)c1ccc(C(F)(F)F)cc1` (stereo not drawn) [Compound 219, N-(2-(dimethylamino)-1-(4-(trifluoromethyl)phenyl)ethyl)-4-(trifluoromethoxy)benzenesulfonamide], the GI50 was 43.6 µM. In the case of `CN(C)CC(NS(=O)(=O)c1ccc([N+](=O)[O-])c(OC(F)(F)F)c1)c1ccc(Cl)c(Cl)c1` (stereo not drawn) [Compound 222, N-(1-(3,4-dichlorophenyl)-2-(dimethylamino)ethyl)-4-nitro-3-(trifluoromethoxy)benzenesulfonamide], the GI50 is reported as 1.34 µM. `CN(C)CC(NS(=O)(=O)c1cccc(OC(F)(F)F)c1[N+](=O)[O-])c1ccc(Cl)c(Cl)c1` (stereo not drawn) [Compound 223, N-(1-(3,4-dichlorophenyl)-2-(dimethylamino)ethyl)-2-nitro-3-(trifluoromethoxy)benzenesulfonamide] gave a GI50 of 57.4 µM.

Same assay, conditions: Homo sapiens, LNCaP, 48 h, LNCaP cell line
Compound `CN(C)CC(NS(=O)(=O)c1ccc(-c2ccccn2)cc1)c1ccc(Cl)c(Cl)c1` (stereo not drawn) [Compound 218, N-(1-(3,4-dichlorophenyl)-2-(dimethylamino)ethyl)-4-(pyridin-2-yl)benzenesulfonamide] has a GI50 of 43.7 µM. For `CN(C)CC(NS(=O)(=O)c1ccc(Oc2cccc(F)c2)cc1)c1ccc(Cl)c(Cl)c1` (stereo not drawn) [Compound 220, N-(1-(3,4-dichlorophenyl)-2-(dimethylamino)ethyl)-4-(3-fluorophenoxy)benzenesulfonamide], the GI50 was 21.1 µM. Work on `CN(C)CC(NS(=O)(=O)c1ccc(Oc2ccc(F)cc2)cc1)c1ccc(Cl)c(Cl)c1` (stereo not drawn) [Compound 221, N-(1-(3,4-dichlorophenyl)-2-(dimethylamino)ethyl)-4-(4-fluorophenoxy)benzenesulfonamide] yielded a GI50 of 26.6 µM. `CC(C)(C)OC(=O)NCC(NS(=O)(=O)c1ccc(OC(F)(F)F)cc1)c1ccc(Cl)c(Cl)c1` (stereo not drawn) [Compound 224, tert-butyl (2-(3,4-dichlorophenyl)-2-((4-(trifluoromethoxy)phenyl)sulfonamido)ethyl)carbamate] showed a GI50 of 15.9 µM. `NCC(NS(=O)(=O)c1ccc(OC(F)(F)F)cc1)c1ccc(Cl)c(Cl)c1` (stereo not drawn) [Compound 225, N-(2-amino-1-(3,4-dichlorophenyl)ethyl)-4-(trifluoromethoxy)benzenesulfonamide hydrochloride] showed a GI50 of 21.8 µM. `COC(=O)c1cc(S(=O)(=O)NC(CN(C)C)c2ccc(Cl)c(Cl)c2)ccc1OC(F)(F)F` (stereo not drawn) [Compound 226, methyl 5-(N-(1-(3,4-dichlorophenyl)-2-(dimethylamino)ethyl)sulfamoyl)-2-(trifluoromethoxy)benzoate] showed a GI50 of 70.6 µM. In the case of `O=S(=O)(NCC1(c2ccc(Cl)c(Cl)c2)CC1)c1ccc(OC(F)(F)F)cc1` [Compound 227, N-((1-(3,4-dichlorophenyl)cyclopropyl)methyl)-4-(trifluoromethoxy)benzenesulfonamide], the GI50 is reported as 48.6 µM. Compound `O=S(=O)(NCC1(c2ccc(Cl)cc2)CC1)c1ccc(OC(F)(F)F)cc1` [Compound 228, N-((1-(4-chlorophenyl)cyclopropyl)methyl)-4-(trifluoromethoxy)benzenesulfonamide] has a GI50 of 59.9 µM. `O=S(=O)(NCC1(c2ccc(Cl)cc2)CCC1)c1ccc(OC(F)(F)F)cc1` [Compound 229, N-((1-(4-chlorophenyl)cyclobutyl)methyl)-4-(trifluoromethoxy)benzenesulfonamide] was tested, and the GI50 was 42.5 µM. `CC1(C)CC1(CNS(=O)(=O)c1ccc(OC(F)(F)F)cc1)c1ccccc1` (stereo not drawn) [Compound 230, N-((2,2-dimethyl-1-phenylcyclopropyl)methyl)-4-(trifluoromethoxy)benzenesulfonamide] showed a GI50 of 37.3 µM. Compound `O=S(=O)(NCC1(c2ccc(Cl)c(Cl)c2)CC1)c1ccc(Oc2ccc(C(F)(F)F)cc2)cc1` [Compound 231, N-((1-(3,4-dichlorophenyl)cyclopropyl)methyl)-4-(4-(trifluoromethyl)phenoxy)benzenesulfonamide] has a GI50 of 47.7 µM. In the case of `O=[N+]([O-])c1cc(S(=O)(=O)NCC2(c3ccc(Cl)c(Cl)c3)CC2)ccc1OC(F)(F)F` [Compound 232, N-((1-(3,4-dichlorophenyl)cyclopropyl)methyl)-3-nitro-4-(trifluoromethoxy)benzenesulfonamide], the GI50 is reported as 31.1 µM.

From US20240174603A1 (Rappta Therapeutics Oy, priority 2021, published 2024)
